Measurements reported in patent US20150065709A1, “Aminoquinazoline Derivative And Use Thereof In Preparing Anti-Malignant Tumor Medicament” (METABOMICS, INC, priority 2012, published 2015).
Read-outs that look alike come from different tables or passages of the source.

Assays:
HER2 = HER2 (Homo sapiens, UniProt P04626); test: Caliper Mobility Shift Assay, inhibition of HER2 kinase activity; type: biochemical
EGFR^T790M = EGFR^T790M (Homo sapiens, UniProt P00533, T790M); test: Caliper Mobility Shift Assay, mutant EGFR kinase; type: biochemical; details: read-out: Inhibition of Kinase Activity (IC50, nM) EGFR^T790M
Sequence of EGFR^T790M (P00533 25-1210 T790M): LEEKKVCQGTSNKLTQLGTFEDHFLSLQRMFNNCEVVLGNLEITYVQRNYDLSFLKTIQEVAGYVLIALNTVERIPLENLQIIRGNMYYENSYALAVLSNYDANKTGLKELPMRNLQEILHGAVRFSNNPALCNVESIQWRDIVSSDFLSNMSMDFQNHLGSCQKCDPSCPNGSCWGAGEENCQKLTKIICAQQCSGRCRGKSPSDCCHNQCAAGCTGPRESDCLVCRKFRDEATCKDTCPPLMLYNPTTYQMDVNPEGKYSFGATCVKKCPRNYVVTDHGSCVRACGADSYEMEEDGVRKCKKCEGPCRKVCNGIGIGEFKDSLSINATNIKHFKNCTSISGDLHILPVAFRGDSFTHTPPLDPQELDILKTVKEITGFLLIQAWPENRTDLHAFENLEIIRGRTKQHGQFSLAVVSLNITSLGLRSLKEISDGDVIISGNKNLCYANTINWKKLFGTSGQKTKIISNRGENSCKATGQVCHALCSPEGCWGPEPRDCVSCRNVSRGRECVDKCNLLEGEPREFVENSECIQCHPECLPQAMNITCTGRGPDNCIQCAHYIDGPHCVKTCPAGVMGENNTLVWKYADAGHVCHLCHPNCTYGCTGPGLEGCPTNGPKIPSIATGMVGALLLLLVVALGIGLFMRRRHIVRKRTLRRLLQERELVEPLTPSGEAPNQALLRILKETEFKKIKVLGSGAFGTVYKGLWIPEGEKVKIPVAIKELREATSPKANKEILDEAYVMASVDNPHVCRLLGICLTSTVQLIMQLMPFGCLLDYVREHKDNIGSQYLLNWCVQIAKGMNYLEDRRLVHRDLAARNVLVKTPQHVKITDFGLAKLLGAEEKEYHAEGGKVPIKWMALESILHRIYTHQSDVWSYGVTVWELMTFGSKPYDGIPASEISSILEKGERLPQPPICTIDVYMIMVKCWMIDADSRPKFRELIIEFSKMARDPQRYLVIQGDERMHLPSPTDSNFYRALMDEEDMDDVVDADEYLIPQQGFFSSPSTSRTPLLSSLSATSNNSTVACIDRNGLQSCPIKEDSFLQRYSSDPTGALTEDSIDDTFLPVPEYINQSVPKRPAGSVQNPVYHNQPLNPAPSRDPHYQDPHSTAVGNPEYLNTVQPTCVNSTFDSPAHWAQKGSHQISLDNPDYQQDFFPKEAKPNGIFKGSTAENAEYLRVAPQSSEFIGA

[1] = tested on: H1975 human non-small cell lung cancer tumor cells; test: Transplanted tumor in nude mice, initial H1975 test; type: in vivo, nude mice (BALB/c)
Protocol: H1975 human non-small cell lung cancer tumor cells were inoculated into 18 nude mice (BALB/c, male, 5-6 weeks of age), and when the mean tumor volume reaches 150 mm^3 the nude mice were randomized into three groups, including: control group (5 nude mice), 20 mg compound Ie/kg/day dose group (8 nude mice) and 75 mg Gefitinib/kg/day (5 nude mice). Test compounds were continuously administrated orally for 21 days. Tumor size and body weight of nude mice were recorded twice weekly from the first day of administration. […] was calculated using the formula (1×w^2), wherein 1 and w respectively represents the maximum and minimum size in each measurement. The change relation of mean tumor volume with the days after tumor transplantation was graphed according to the calculation results.

[2] = tested on: H1975 (non-small cell lung cancer); test: Transplanted tumor in nude mice, further H1975 model; type: in vivo, nude mice (BALB/c); details: 6.7, 13.4, 20.1 mg/kg/day orally for 21 days
Text: (§1) Furthermore, more pharmacological models of tumor cell lines in nude mice were utilized to validate the inhibitory effects of compound Ie. The test method was specifically described as follows: H1975, A549, HCC827, A431, N87, MDA-MD-468 and CAL27 tumor cells respectively were inoculated into nude mice (BALB/c, male, 5-6 weeks of age), and when the mean tumor volume reaches 150 mm^3 mice was randomized into groups. The H1975 tumor model in nude mice includes one positive control group and three dosage groups of compound Ie (6.7 mg/kg/day, 13.4 mg/kg/day, and 20.1 mg/kg/day. The A549 tumor model in nude mice includes one positive control group, two dosage groups of compound Ie (10 mg/kg/day, 20 mg/kg/day), and one dosage group of Docetaxel (12 mg/kg/day). The HCC827 tumor model in nude mice includes one positive control group, two dosage groups of compound Ie (0.5 mg/kg/day, 2.5 mg/kg/day), and one dosage group of Erlotinib (12.5 mg/kg/day). The A431 tumor model in nude mice includes one positive control group, two dosage groups of compound Ie (2.5 mg/kg/day, 5 mg/kg/day), and one dosage group of Erlotinib (50 mg/kg/day). […] The tumor size and body weight of nude mice were recorded twice weekly from the first day of administration. The tumor volume was calculated using formula (1×w^2), wherein 1 and w respectively represents the maximum and minimum size in each measurement. […]

[3] = tested on: A549 (non-small cell lung cancer); test: Transplanted tumor in nude mice, A549 model; type: in vivo, nude mice (BALB/c)
Text: as §1

N87(gastric cancer) = test: Transplanted tumor in nude mice, N87 model; type: in vivo, nude mice (BALB/c)
Text: as §1

[4] = tested on: MDA-MD-468 (breast cancer); test: Transplanted tumor in nude mice, MDA-MD-468 model; type: in vivo, nude mice (BALB/c)
Text: as §1

[5] = Pharmacokinetic experiments in CD-1 mice; type: in vivo; details: male, mouse, plasma; for half-life: read-out: Terminal t1/2 (converted)
Protocol: Experiment animals: CD-1 mice, male, 6-7 weeks of age; body weight: 20-25 g; Preparation of samples: the test compounds respectively were formulated to 0.2 mg/mL (for intravenous administration) and 1.0 mg/mL (for oral administration) for use. Administration routes: oral administration/intravenous administration. Amount and frequency of administration: 5 mL/kg for single administration.
Sample collection: blood was collected at the time points of 5 min, 15 min, 30 min, 1 h, 2 h, 4 h, 8 h and 24 h, about […] whole blood was collected from 3 animals at each time point. All of the animals were euthanized after the experiments.
Sample analysis: the collected samples were detected by LC-MS/MS, and the instrument model is SHIMADZU20A-API4000.
(§2) Pharmacokinetic data analysis: the obtained plasma concentration data were fitted and calculated using WinNolin according to non-compartment model.

[6] = Long-term toxicity experiment (28 days) in dogs; type: in vivo
Protocol: Experiment Animals: rats, male, 6-8 weeks of age, body weight: 180-250 g; dogs, male, about 24 months, body weight: 7-10 kg.
Preparation of sample: in rat's experiments the mixed formulation powder of the compound Ie was formulated into 0.1, 0.3 and 1 mg/mL homogeneous suspension for use; administration route: oral administration; […]. In dog's experiments the tablets of compound Ie were fed to dogs. […].
Sample collection: blood was collected at the time points of 1, 10, 20 and 28 days respectively, about 120-200 μL whole blood was collected from 3 animals at each time point. Blood was collected at 1 h, 4 h, 8 h and 24 h after administration.
Sample analysis: the collected samples were detected by LC-MS/MS, and the instrument model was SHIMADZU20 A-API4000.
as §2

[7] = 5, 10 mg/kg/day orally for 21 days

Sequence of HER2 (P04626 23-1255): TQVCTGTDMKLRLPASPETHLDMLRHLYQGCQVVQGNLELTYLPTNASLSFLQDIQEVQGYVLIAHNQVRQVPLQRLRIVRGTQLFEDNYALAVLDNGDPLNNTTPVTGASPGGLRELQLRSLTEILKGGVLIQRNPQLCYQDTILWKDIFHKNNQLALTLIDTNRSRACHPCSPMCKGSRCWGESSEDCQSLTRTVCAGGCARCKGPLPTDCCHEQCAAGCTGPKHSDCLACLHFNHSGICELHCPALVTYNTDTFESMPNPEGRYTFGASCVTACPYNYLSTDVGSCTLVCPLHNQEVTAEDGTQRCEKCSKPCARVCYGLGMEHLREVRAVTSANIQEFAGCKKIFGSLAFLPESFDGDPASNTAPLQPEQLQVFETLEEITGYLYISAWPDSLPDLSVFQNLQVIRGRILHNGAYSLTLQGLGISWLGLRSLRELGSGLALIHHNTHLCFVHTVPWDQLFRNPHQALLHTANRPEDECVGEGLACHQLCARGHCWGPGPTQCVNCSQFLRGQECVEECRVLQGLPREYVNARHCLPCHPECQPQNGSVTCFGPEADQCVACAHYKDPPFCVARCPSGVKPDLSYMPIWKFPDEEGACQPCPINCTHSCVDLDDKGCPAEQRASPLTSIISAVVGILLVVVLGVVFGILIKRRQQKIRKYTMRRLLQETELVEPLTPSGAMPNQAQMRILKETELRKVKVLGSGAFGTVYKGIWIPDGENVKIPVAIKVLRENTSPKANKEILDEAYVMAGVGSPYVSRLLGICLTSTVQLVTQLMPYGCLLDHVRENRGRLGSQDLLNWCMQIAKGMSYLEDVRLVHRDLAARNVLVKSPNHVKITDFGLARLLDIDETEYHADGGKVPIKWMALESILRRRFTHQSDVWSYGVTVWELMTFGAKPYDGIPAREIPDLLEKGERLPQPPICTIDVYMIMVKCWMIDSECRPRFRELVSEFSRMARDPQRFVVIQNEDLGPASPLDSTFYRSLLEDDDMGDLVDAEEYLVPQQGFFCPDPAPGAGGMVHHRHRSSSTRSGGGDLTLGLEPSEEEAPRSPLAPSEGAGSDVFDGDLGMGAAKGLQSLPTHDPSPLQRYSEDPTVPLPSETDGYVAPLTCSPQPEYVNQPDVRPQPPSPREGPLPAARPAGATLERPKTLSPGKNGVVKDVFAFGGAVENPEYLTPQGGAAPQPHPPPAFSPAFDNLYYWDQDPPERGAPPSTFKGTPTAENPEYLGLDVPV

## CN(C)C/C=C/C(=O)Nc1cc2c(Nc3ccc(F)c(Cl)c3)ncnc2cc1OC(F)F [Compound Ie]
HER2
  IC50: 11.7 nM
EGFR^T790M
  IC50: 4.6 nM
[1]; H1975 tumor model, 20 mg compound Ie/kg/day orally for 21 days
  T/C %: 59%
[1]; compound Ie 20 mg/kg/day, Gefitinib 75 mg/kg/day, orally for 21 days
  therapeutic effect on H1975 tumor model: good therapeutic effect
[2]
  inhibitory and therapeutic effects on H1975 tumor model: strong inhibitory effects and therapeutic effects
[3]; 10, 20 mg/kg/day orally for 21 days
  inhibitory and therapeutic effects on A549 tumor model: strong inhibitory effects and therapeutic effects
[3]; versus Docetaxel (12 mg/kg/day)
  inhibitory effects on tumor cell growth compared with other drugs, A549 model: stronger inhibitory effects
N87(gastric cancer); [7]
  inhibitory and therapeutic effects on N87 tumor model: strong inhibitory effects and therapeutic effects
N87(gastric cancer); versus Lapatinib (90 mg/kg/day, twice daily)
  inhibitory effects on tumor cell growth compared with other drugs, N87 model: stronger inhibitory effects
[4]; [7]
  inhibitory and therapeutic effects on MDA-MD-468 tumor model: strong inhibitory effects and therapeutic effects
[4]; versus Docetaxel (12 mg/kg/week) and Afatinib (30 mg/kg/day)
  inhibitory effects on tumor cell growth compared with other drugs, MDA-MD-468 model: stronger inhibitory effects
[5]; 1 mg/kg Intravenous Injection
  AUC(0-inf): 167 ng·h/mL
  AUC(0-t): 137 ng·h/mL
  MRT inf: 2.88 h
  clearance: 115 mL/min/kg
  half-life: 2.31 h
[5]; 1 mg/kg Intravenous Injection, read-out: Vss
  Vd: 18.9 L/kg
[5]; 5 mg/kg Oral Administration
  AUC(0-inf): 1600 ng·h/mL
  AUC(0-t): 1150 ng·h/mL
  Cmax: 92.3 ng/mL
  Tmax: 4.33 h
  half-life: 7.11 h
[6]; dog, in vivo, 1 mg/kg
  toxicity reaction: No toxicity reaction
[6]; dogs, 5 mg/kg, 28 days, reaction of Afatinib group greater than compound Ie group
  toxicity reaction: toxicity reactions
